This note sets out measurements from ChEMBL document CHEMBL1201862, “PubChem BioAssay data set” (2004).

Experiment [1] deals with HeLa. Briefly: viability loss in HeLa cells – cell-based, 24 h, cherry-picked samples, cytotoxicity control, dose response (AID 504726).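 Also: potency for cytotoxicity as loss of luminescence signal.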 Particulars: Homo sapiens. The class given is functional.
Experiment [2] deals with Tyrosine-protein phosphatase non-receptor type 5 (Homo sapiens, UniProt P54829). Briefly: PTPN5 enzyme inhibition – biochemical, fluorescence intensity, uHTS hits, confirmation (AID 602372). The class given is functional. Particulars: read-out: IC50_Mean.
Tyrosine-protein phosphatase non-receptor type 5, sequence (P54829 whole entry): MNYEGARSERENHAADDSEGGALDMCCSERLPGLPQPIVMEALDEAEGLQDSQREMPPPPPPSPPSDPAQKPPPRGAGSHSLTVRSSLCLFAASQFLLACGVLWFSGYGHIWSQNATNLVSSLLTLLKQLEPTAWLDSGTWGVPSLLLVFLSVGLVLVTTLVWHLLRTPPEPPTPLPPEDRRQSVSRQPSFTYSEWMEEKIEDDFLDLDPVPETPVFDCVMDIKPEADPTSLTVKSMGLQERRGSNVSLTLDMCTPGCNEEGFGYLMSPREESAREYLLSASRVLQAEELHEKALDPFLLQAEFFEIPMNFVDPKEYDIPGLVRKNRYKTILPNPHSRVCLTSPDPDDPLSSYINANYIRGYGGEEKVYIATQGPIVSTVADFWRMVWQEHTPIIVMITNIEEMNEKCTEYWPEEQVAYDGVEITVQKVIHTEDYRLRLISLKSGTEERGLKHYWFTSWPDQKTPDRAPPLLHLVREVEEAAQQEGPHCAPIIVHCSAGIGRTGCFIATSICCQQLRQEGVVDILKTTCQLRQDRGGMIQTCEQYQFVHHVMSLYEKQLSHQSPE
The subject of experiment [3] is Vero. Briefly: viability of Vero cells under compound – cytotoxicity control for flavivirus capping enzyme inhibitors (AID 588742). The class given is functional. Particulars: Chlorocebus sabaeus.
For experiment [4], the target named is Tyrosine-protein phosphatase non-receptor type 11 (Homo sapiens, UniProt Q06124). Briefly: PTPN11 enzyme inhibitors – biochemical, selectivity assay for STEP inhibitor project, dose response (AID 602367). The experiment is classed as functional. Particulars: read-out: IC50_Mean.
Tyrosine-protein phosphatase non-receptor type 11, sequence (Q06124 whole entry): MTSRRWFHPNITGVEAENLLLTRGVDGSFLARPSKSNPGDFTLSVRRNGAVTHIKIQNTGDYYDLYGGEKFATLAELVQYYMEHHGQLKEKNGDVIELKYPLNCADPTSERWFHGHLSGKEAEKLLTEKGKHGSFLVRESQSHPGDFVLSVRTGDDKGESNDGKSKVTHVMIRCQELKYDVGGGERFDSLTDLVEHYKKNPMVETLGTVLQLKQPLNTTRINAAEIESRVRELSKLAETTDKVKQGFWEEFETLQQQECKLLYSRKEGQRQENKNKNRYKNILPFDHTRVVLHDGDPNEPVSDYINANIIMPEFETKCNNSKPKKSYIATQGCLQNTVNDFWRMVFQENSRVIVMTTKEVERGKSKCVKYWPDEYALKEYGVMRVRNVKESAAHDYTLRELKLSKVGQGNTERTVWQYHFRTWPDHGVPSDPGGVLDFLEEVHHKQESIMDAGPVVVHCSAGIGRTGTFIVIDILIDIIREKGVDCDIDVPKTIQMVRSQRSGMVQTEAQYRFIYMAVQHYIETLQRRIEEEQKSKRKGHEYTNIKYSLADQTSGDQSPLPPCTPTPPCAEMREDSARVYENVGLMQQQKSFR
The target in experiment [5] is T1, Dual specificity protein phosphatase 3 (Homo sapiens, UniProt P51452). Briefly: VHR phosphatase inhibition, dose response, selectivity assay for STEP inhibitor project, biochemical (AID 602374). The experiment is classed as functional. Particulars: read-out: IC50_Mean.
T1 sequence (P51452 whole entry): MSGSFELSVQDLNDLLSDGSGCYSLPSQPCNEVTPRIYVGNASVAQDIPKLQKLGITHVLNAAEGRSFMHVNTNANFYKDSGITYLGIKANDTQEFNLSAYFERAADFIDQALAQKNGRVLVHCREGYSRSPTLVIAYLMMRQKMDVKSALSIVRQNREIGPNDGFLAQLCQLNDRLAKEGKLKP
Experiment [6] deals with Genome polyprotein (dengue virus type 2, UniProt P29990). In words: flavivirus cap methylation enzyme inhibition – biochemical, confirmation dose response, primary screen (AID 588689). The experiment is classed as functional.
Genome polyprotein, sequence (P29990 2492-3391 limits assumed): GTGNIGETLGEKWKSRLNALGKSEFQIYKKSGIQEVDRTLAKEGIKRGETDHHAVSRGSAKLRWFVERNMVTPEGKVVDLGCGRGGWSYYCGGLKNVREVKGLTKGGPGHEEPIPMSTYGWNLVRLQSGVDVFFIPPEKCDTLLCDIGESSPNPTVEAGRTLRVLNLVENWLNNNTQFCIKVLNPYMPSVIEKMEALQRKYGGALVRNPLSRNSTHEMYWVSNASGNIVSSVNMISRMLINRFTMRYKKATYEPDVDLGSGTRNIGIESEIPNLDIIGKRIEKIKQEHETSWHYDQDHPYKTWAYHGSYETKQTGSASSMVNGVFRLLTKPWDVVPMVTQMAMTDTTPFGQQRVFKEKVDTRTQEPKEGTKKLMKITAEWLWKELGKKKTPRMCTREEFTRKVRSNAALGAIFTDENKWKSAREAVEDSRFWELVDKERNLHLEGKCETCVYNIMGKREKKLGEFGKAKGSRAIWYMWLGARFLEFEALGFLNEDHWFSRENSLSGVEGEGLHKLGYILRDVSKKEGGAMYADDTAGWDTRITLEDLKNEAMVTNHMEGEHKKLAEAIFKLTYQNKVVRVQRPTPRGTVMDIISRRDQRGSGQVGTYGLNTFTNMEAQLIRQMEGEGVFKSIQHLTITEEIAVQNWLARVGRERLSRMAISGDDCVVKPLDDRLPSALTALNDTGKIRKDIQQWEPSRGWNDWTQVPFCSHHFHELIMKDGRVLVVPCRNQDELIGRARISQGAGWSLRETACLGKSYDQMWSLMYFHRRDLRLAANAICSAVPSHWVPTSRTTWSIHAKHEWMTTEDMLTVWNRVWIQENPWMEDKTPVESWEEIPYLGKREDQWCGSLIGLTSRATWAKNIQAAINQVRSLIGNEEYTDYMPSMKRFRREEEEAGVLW
The target of experiment [7] is ORF 73 (Human herpesvirus 8, UniProt O40947). Briefly: KSHV LANA DNA-binding disruption – biochemical, fluorescence polarization, cherry-picked samples, dose response (AID 504725).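 Also: fluorescence polarization of a labeled DNA duplex reporting LANA DNA binding; potency is for inhibitors that block LANA binding to the DNA.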 The arrangement: species or system Human gammaherpesvirus 8. In general terms: Fluorescence polarisation rises when a labelled molecule tumbles more slowly, as on binding a larger partner.
ORF 73, sequence (O40947 whole entry): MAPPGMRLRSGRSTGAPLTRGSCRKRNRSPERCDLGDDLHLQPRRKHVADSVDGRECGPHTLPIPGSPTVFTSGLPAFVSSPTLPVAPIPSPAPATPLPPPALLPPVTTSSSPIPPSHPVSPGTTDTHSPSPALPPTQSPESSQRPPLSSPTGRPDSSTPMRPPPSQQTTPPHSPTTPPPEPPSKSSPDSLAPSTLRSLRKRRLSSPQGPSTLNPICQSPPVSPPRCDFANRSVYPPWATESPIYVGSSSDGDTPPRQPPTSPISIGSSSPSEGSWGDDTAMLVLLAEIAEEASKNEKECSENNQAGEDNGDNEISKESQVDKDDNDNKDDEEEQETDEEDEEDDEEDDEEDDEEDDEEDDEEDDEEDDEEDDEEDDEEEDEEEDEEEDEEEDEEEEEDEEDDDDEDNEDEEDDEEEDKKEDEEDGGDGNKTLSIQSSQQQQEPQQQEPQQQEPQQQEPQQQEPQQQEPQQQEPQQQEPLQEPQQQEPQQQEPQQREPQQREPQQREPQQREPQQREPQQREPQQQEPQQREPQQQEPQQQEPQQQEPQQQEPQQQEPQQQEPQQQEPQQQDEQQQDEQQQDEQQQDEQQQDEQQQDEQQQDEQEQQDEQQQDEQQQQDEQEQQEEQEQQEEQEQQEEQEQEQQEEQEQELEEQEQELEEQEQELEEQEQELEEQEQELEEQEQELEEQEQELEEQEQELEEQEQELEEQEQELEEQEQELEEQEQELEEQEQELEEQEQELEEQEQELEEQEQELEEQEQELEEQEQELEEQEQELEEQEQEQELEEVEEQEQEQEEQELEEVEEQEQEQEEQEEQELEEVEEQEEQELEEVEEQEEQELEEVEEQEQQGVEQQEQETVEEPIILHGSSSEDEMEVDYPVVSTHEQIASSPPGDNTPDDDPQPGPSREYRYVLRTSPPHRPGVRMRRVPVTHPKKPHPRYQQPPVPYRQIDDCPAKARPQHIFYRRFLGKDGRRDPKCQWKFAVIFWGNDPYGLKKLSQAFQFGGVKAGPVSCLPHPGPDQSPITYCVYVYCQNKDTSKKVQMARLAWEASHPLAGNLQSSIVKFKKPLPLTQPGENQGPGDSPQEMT

Experiment [8] deals with Scavenger receptor class B member 1 (Mus musculus, UniProt Q61009). In words: mouse SR-BI DiI-HDL uptake blockers – ldlA[mSR-BI] cells, fluorescence, cherry pick, dose response (AID 493194).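 Also: cellular uptake of fluorescent DiI-labeled HDL measured as cell fluorescence.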 The experiment is classed as functional, cell-based.
Scavenger receptor class B member 1, sequence (Q61009 whole entry): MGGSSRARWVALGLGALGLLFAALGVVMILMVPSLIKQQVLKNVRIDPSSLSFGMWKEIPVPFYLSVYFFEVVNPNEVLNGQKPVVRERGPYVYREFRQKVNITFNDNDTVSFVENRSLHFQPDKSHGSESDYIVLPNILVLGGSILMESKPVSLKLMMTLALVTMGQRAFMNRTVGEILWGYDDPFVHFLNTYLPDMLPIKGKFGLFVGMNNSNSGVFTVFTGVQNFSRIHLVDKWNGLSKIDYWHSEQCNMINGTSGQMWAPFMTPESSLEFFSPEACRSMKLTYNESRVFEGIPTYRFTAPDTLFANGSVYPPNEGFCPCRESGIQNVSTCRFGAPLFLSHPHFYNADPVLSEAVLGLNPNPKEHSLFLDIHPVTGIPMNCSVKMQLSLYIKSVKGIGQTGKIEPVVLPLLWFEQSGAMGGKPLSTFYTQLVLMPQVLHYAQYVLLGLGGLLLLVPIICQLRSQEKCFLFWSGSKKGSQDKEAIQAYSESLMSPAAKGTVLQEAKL
In experiment [9] the target is T1, Dual specificity protein phosphatase 3. Briefly: inhibition constants for human DUSP3 – biochemical, colorimetric, SAR follow-up (AID 2004).
Experiment [10] concerns the target T2, Streptokinase A (Streptococcus pyogenes serotype M1, UniProt P10520).
T2 sequence (P10520 whole entry): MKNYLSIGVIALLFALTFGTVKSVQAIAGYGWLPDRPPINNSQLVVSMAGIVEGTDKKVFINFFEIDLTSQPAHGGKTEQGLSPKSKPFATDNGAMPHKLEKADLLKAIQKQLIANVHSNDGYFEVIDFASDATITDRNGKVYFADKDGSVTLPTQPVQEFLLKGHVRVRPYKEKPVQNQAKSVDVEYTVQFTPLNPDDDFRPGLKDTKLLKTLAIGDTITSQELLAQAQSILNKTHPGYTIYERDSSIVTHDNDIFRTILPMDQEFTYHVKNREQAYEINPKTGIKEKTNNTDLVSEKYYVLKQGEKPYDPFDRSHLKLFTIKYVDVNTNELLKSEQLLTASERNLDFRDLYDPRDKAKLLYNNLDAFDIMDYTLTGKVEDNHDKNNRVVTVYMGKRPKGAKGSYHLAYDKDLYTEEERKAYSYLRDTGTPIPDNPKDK
In words: viability-normalized secreted streptokinase activity reduction – plasminogen activation absorbance, OD405, dose response (AID 1914).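 Also: secreted streptokinase activity via plasminogen activation per viability signal from cell pellet.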 The class given is functional, Streptococcus pyogenes M1 GAS.

Experiment [11] concerns Streptococcus. Briefly: Luminescence Microorganism-Based Dose Response Follow up to Identify Compounds Cytotoxic to Streptococcus. [Related pubchem assays: 1677 (Project Summary), 1915, 1914, 1902 (Retest at Dose), 1900 (Counter Screen), 1662 (Primary HTS)]. The experiment is classed as functional, organism-based.
The subject of experiment [12] is Streptococcus sp. 'group A'. In words: Streptococcus pyogenes SK(-)GAS viability under kanamycin – luminescence, BacTiterGlo, confirmation, counter-screen for streptokinase expression inhibitor project, dose response (AID 1900). The experiment is classed as functional, organism-based.
Experiment [13] has as its system Streptococcus. Briefly: GAS UMAA2166 growth inhibition – luminescence, BacTiterGlo, counter-screen for streptokinase expression inhibitor project, dose response (AID 1915).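 Also: potency for reduction of bacterial viability or growth.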 The experiment is classed as functional, organism-based. Background: The purpose of a counterscreen is to sort out artefacts and off-target activity.
In experiment [14] the target is Luciferin 4-monooxygenase (Photinus pyralis, UniProt P08659). Briefly: inhibition of purified Photinus pyralis luciferase – biochemical, dry powder samples, plate reader, dose response (AID 588451).
Luciferin 4-monooxygenase, sequence (P08659 whole entry): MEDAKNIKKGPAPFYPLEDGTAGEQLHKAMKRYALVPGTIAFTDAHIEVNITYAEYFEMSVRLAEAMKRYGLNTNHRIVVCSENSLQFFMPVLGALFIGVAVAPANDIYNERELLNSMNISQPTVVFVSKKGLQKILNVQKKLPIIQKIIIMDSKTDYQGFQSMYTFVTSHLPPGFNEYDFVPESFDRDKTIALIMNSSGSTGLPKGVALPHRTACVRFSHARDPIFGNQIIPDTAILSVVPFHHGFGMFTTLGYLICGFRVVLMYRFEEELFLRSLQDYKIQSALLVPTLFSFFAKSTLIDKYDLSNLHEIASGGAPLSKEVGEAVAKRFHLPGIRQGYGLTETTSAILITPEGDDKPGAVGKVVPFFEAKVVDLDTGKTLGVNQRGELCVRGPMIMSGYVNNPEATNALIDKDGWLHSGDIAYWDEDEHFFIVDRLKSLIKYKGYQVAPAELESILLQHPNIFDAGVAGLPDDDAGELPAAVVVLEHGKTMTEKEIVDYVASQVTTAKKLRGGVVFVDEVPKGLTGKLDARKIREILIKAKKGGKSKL
A short description of experiment [15]: Shn3 3'UTR reporter signal decrease – cell-based, Clone20 osteoblasts, firefly luciferase, cherry-pick, set 2, Schnurri-3 inhibitor project, dose response (AID 720490).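 Also: actives lower the luminescence signal as inhibitors.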 The class given is functional.
The nature of experiment [16]: Luminescence Cell-Based Dose Response HTS to Identify Inhibitors of 5'UTR Stem-Loop Driven Prion Protein mRNA Translation in H4 Neuroglioblastoma Cells. [Related pubchem assays: 1827 (Project Summary), 1813 (Primary HTS)]. The class given is functional.
Experiment [17] deals with H4. In words: Amyloid Precursor 5' UTR neuroblastoma cell reporter line Measured in Cell-Based System Using Plate Reader - 2078-04_Inhibitor_Dose_DryPowder_Activity. [Related pubchem assays (depositor defined):AID488894]. The experiment is classed as functional. Particulars: Homo sapiens.
Experiment [18] deals with HEK293. Briefly: cells. Conditions: Homo sapiens.
The nature of experiment [19]: alpha-synuclein stem-loop translation blockers – luminescence, H4 neuroglioblastoma cells, dose confirmation, confirmation (AID 2454).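 Also: H4 neuroglioblastoma cells carrying an alpha-synuclein 5'UTR luciferase reporter; potency for inhibition of the luciferase signal.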 The experiment is classed as functional, cell-based.
Experiment [20] in a line: reduction of Shn3 3'UTR-driven luciferase in osteoblasts – cell-based, Clone20 osteoblasts, firefly luciferase, cherry-picked, dose response (AID 624132).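 Also: firefly luciferase luminescence from reporter carrying the Shn3 3'UTR in osteoblasts.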 The class given is functional.
For experiment [21], the system named is H4. Briefly: inhibitors of control reporter signal in H4 cells – cell-based, plate reader, dry powder samples, counter-screen for prion reporter project, dose response (AID 540255). Conditions: Homo sapiens. The experiment is classed as functional.
Experiment [22] is described as follows: Luminescence-based counterscreen assay for KLF5 inhibitors: dose response cell-based high throughput screening assay to identify cytotoxic compounds using the IEC-6 intestinal epithelial cell line. [Related pubchem assays: 1700 (Primary screen.), 1834 (Confirmation screen.), 1858 (Summary AID.), 1905 (Counterscreen.)]. The class given is functional.
Experiment [23] deals with T3, Heat shock factor protein 1 (Mus musculus, UniProt P38532).
T3 sequence (P38532 whole entry): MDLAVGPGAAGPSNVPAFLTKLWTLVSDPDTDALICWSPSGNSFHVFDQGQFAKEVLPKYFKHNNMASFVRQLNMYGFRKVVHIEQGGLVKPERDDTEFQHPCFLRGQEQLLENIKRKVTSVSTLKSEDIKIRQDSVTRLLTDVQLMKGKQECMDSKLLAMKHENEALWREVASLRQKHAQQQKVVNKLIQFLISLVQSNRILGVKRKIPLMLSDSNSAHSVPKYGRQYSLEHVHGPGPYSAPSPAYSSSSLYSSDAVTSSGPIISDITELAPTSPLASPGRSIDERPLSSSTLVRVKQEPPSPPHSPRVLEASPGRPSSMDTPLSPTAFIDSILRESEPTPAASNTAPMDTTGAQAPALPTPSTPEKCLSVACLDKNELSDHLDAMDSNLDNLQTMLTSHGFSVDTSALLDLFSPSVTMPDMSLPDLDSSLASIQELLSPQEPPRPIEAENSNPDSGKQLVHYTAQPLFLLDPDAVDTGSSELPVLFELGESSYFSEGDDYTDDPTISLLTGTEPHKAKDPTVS
In words: decrease of HSF1-responsive luciferase luminescence – cell-based, NIH3T3, dose retest, confirmation (AID 2382).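 Also: NIH3T3 fibroblasts with HSF1-driven luciferase reporter stressed by proteasome inhibitor MG132; luminescence from HSF1-driven luciferase expression after 8 hours of MG132 stress.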 The experiment is classed as functional.

A short description of experiment [24]: luciferase reporter signal reduction – luminescence, H4-C neuroglioblastoma cells, dose response (AID 2458).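 Also: H4 neuroglioblastoma cells stably carrying a luciferase reporter gene fusion.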 The class given is functional, cell-based. For orientation: In a reporter assay the amount or activity of a reporter protein is the signal.
The target of experiment [25] is Tumor necrosis factor (Homo sapiens, UniProt P01375). Briefly: analog potency on TNFa NF-kB signaling – cell-based, revised, SAR follow-up (AID 2337). The experiment is classed as functional.
Tumor necrosis factor, sequence (P01375 whole entry): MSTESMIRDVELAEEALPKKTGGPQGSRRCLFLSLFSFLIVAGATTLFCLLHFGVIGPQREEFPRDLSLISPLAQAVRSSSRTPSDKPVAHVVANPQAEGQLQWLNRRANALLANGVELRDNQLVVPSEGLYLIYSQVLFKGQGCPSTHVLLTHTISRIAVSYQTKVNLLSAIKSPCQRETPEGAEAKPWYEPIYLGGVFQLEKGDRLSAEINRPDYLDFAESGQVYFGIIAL
A short description of experiment [26]: alpha-synuclein stem-loop luciferase translation blockers – H4 neuroglioma cells, luminescence, confirmation (AID 1988). The class given is functional, cell-based.
Experiment [27] is described as follows: cells. The class given is functional, cell-based.
Experiment [28] relates to H4. In words: Inhibitors of Prion Protein 5' UTR mRNA Measured in Cell-Based System Using Plate Reader - 2078-01_Inhibitor_Dose_DryPowder_Activity. [Related pubchem assays (depositor defined):AID488894]. The class given is functional. Conditions: Homo sapiens.
Experiment [29] deals with T4, Nucleotide-binding oligomerization domain-containing protein 1 (Homo sapiens, UniProt Q9Y239).
T4 sequence (Q9Y239 whole entry): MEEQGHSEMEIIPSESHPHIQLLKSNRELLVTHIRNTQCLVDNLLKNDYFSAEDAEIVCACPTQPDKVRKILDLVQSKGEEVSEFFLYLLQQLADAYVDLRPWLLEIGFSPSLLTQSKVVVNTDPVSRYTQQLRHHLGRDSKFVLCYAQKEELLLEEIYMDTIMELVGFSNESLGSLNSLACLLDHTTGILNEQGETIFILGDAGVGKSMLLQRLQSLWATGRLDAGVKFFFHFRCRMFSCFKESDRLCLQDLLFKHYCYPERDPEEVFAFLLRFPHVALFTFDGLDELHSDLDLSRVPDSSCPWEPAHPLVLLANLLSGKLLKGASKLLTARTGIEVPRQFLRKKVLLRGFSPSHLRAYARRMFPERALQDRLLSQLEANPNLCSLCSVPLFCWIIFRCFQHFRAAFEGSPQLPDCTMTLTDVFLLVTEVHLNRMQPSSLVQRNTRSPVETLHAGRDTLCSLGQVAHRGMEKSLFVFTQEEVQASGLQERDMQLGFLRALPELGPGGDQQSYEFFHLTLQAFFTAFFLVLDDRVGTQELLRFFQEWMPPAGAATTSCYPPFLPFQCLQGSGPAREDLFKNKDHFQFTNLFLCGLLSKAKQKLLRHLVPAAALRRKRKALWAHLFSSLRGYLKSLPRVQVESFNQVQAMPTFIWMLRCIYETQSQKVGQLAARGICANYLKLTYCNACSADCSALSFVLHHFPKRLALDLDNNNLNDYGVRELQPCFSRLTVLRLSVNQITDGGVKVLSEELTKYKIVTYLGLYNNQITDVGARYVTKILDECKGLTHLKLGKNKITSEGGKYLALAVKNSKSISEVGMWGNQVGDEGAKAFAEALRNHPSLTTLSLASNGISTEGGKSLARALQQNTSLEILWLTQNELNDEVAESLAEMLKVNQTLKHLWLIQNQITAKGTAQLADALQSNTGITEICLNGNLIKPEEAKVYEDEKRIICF
Briefly: blockers of NOD1 pathway activity – revised, SAR follow-up (AID 2333). The class given is functional.

The nature of experiment [30]: luciferase reporter signal suppression in cells – H4 neuroglioma cells, luminescence, dose response (AID 1990). The class given is functional, cell-based.

Calls of active or inactive are those of the source.

As a reminder, the AC50 is the concentration at which the activity in the assay is half-maximal. A word on the CC50: it is the concentration giving 50% cytotoxicity. `CC1=C(O)C(O)=C(C2=C(O)C(O)=C(C)C(=O)C2=O)C(=O)C1=O`: the half-maximal activity concentration (AC50) was 61.8 µM (active) in experiment [1] and 312 µM (active) in experiment [7]. Besides, the IC50 in experiment [2] was > 80 µM (inactive); in experiment [4], < 0.16 µM (active); in experiment [5], 1.27 µM (active); in [6], 28.3 µM (active). Also, the cytotoxic concentration (CC50) in experiment [3] was 31.7 µM (active).

Consider `Cc1cc(C(=O)C(C)OC(=O)C2=NNC(=O)CC2)c(C)n1-c1ccc(OC(F)F)cc1` (stereo not given), for which the half-maximal activity concentration (AC50) in [8] was 3.29 µM (active).

Broadly, the Ki is the equilibrium dissociation constant of an inhibitor or competing ligand from its target. Consider `O=C1NC(=S)/C(=C\c2ccc(-c3ccc([N+](=O)[O-])cc3)o2)S1`, for which the Ki in experiment [9] is 1.86 µM (active).

In general, EC50 refers to the concentration giving half of the maximal effect. Turning to `CCOC(=O)c1c(NC(=O)c2cccs2)sc(CC)c1-c1cccs1`, the EC50 in experiment [10] was 9.89 µM (active); in [11], > 500 µM (not active); in experiment [12] it was 47.6 µM (active); in experiment [13] it was > 150 µM (not active).

Turning to `Cc1cc(C(=O)COC(=O)c2ccccc2O)c(C)n1Cc1cccs1`, the concentration at half-maximal activity (AC50) in [14] was 12.2 µM (active); in experiment [15], < 0.135 µM (active); in [17] it was 0.00332 µM (active); in experiment [20] it was 8.99 µM (active); in experiment [21], 0.066 µM (active); in [28] it was 0.013 µM (active). The EC50 in experiment [16] was < 0.1 µM (active); in [19] it was 0.159 µM (active); in experiment [23], < 0.16 µM (active); in experiment [24], 0.102 µM (active); in [26] it was < 0.1 µM (active); in experiment [27] it was 0.146 µM (active). Further, the half-maximal effective concentration (EC50) in [30] was < 0.1 µM (active). Also, the IC50 in experiment [18] was > 20 µM (inactive); in experiment [22], > 39.8 µM (not active); in experiment [25], < 0.0391 µM (active); in [29], 0.285 µM (active).
